Experimental findings from US6740644B2, “Chemical compounds” (Smithkline Beecham Corporation, priority 1997, dated 2004) are described below.

One data set concerns the target T1, A3 receptor (Homo sapiens, UniProt P0DMS8).
T1 sequence (P0DMS8 1-318): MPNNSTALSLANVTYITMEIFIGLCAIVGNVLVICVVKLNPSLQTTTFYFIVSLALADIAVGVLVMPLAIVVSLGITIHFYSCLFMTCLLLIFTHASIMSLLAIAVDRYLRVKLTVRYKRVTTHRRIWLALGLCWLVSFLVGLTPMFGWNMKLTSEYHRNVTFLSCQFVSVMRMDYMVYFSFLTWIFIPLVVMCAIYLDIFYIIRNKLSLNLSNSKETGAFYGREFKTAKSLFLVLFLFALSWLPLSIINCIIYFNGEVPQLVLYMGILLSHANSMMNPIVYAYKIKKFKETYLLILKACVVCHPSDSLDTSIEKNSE
Put plainly: Reporter gene experiments: A3 receptor gene assay, ECR relative to NECA. The conditions noted are these: ECR = concentration ratio relative to NECA = 1. In general terms: In a reporter assay the amount or activity of a reporter protein is the signal.

For data set [1], the target named is T2, human adenosine A1 receptor (Homo sapiens, UniProt P30542).
T2 construct: expressed in transfected cells; host or cells: Chinese hamster ovary (CHO) cells containing the CRE/SPAP/HYG reporter gene
T2 sequence (P30542 1-326): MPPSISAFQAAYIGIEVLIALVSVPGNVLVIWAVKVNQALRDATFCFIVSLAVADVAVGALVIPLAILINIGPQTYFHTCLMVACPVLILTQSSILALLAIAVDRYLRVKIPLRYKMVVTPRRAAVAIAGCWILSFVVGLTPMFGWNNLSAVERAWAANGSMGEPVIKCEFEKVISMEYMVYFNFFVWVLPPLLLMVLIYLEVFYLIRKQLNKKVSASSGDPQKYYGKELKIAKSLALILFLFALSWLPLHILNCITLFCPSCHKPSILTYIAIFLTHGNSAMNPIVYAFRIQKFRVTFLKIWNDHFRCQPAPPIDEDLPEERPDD
Description: Reporter gene experiments: inhibition of forskolin-stimulated SPAP production in CHO cells (CRE/SPAP/HYG), A1. The settings on record: ECR = concentration ratio relative to NECA = 1, CHO cells co-expressing human adenosine A1 receptor. Format: cell-based. The procedure:
Reporter Gene Experiments
Agonist activity was measured in Chinese hamster ovary (CHO) cells containing the CRE/SPAP/HYG (CRE=cyclic AMP response element; HYG=hygromycin; SPAP=secreted placental alkaline phosphatase) reporter gene, which upon stimulation of cAMP levels produced SPAP. A cell line was used, which stably co-expresses the human adenosine A1 receptor. Cells were plated out in 96-well plates in culture medium and incubated at 37° C. for 1 hour. […] All cells were then incubated for a further 5 hours at 37° C., and cooled to room temperature, after which a substrate for the phosphatase (para-nitrophenol phosphate,pNPP), which is broken down to a coloured reagent) was then added and the 96-well plates are read in a plate reader. From these readings, the concentration-dependence of the inhibition by the agonist of forskolin-stimulated SPAP production, can be calculated.

`COC[C@H]1O[C@@H](n2cnc3c(N[C@@H]4C[C@@H]5CC[C@H]4C5)ncnc32)[C@H](O)[C@@H]1O` (relative stereo) [Example 22, N-rel-[(1S,4R)-Bicyclo[2.2.1]hept-2R-yl]-5′-O-methyl-adenosine]: the “A3 Receptor Gene Assay ECR” value on A3 receptor was determined as 112.

Turning to `COC[C@H]1O[C@@H](n2cnc3c(N[C@@H]4CCOC4)ncnc32)[C@H](O)[C@@H]1O` [Example 1, 5′-O-Methyl-N-(tetrahydro-furan-3R-yl)-adenosine], the “A3 Receptor Gene Assay ECR” value on A3 receptor is given as greater than 129.

Consider `COC[C@H]1O[C@@H](n2cnc3c(NC4CCOCC4)ncnc32)[C@H](O)[C@@H]1O` [Example 2, 5′-O-Methyl-N-(tetrahydro-pyran-4-yl)-adenosine], for which the melting point was 133 to 134 °C. For the same compound, in data set [1], the “A1 Receptor Gene Assay ECR” value is 3.30. Moreover, at A3 receptor, the “A3 Receptor Gene Assay ECR” value is 180.

For `COC[C@H]1O[C@@H](n2cnc3c(N[C@H]4CCC[C@@H]4OC)ncnc32)[C@H](O)[C@@H]1O` [Example 3, N-(2S-Methoxy-(S)-cyclopentyl)-5′-O-methyl-adenosine], the “A3 Receptor Gene Assay ECR” value at A3 receptor is 204.

As to `COC[C@H]1O[C@@H](n2cnc3c(N[C@@H]4CCO[C@H]4C)ncnc32)[C@H](O)[C@@H]1O` [Example 4, 5′-O-Methyl-N-(2S-methyl-tetrahydro-furan-3R-yl)-adenosine], the “A3 Receptor Gene Assay ECR” value at A3 receptor worked out at 338.

`COC[C@H]1O[C@@H](n2cnc3c(Nc4ccc(O)c(Cl)c4)ncnc32)[C@H](O)[C@@H]1O` [Example 5, N-(3-Chloro-4-hydroxy-phenyl)-5′-O-methyl-adenosine] gave a melting point of 225 to 230 °C. Further, the “A1 Receptor Gene Assay ECR” value in data set [1] was found to be 6.21. The “A3 Receptor Gene Assay ECR” value on A3 receptor is greater than 116.

For the compound `COC[C@H]1O[C@@H](n2cnc3c(N[C@H](C)Cc4ccccc4)ncnc32)[C@H](O)[C@@H]1O` [Example 6, 5′-O-Methyl-N-(1R-methyl-2-phenyl-ethyl)-adenosine], the “A1 Receptor Gene Assay ECR” value in data set [1] is recorded as 1.27. The “A3 Receptor Gene Assay ECR” value on A3 receptor amounted to 5.00.

`COC[C@H]1O[C@@H](n2cnc3c(N[C@H](C)CO)ncnc32)[C@H](O)[C@@H]1O` [Example 14, N-(2-Hydroxy-1R-methyl-ethyl)-5′-O-methyl-adenosine] had a melting point of 232 to 233 °C.

With `COC[C@H]1O[C@@H](n2cnc3c(N[C@@H]4CCC[C@H]4O)ncnc32)[C@H](O)[C@@H]1O` [Example 17, N-(2R-Hydroxy-(R)-cyclopentyl)-5′-O-methyl-adenosine], the melting point is 202 to 204 °C. The “A1 Receptor Gene Assay ECR” value in data set [1] was found to be 3.90. The “A3 Receptor Gene Assay ECR” value on A3 receptor came out at 57.3.

Take `COC[C@H]1O[C@@H](n2cnc3c(NC(C)(C)C)ncnc32)[C@H](O)[C@@H]1O` [Example 19, N-tert-Butyl-5′-O-methyl-adenosine]: in data set [1], the “A1 Receptor Gene Assay ECR” value was determined as 1.62. Besides, the “A3 Receptor Gene Assay ECR” value on A3 receptor was greater than 243.

With `COC[C@H]1O[C@@H](n2cnc3c(N[C@H]4CCC[C@@H]4F)ncnc32)[C@H](O)[C@@H]1O` [Example 20, N-(2S-Fluoro-(S)-cyclopentyl)-5′-O-methyl-adenosine], the “A3 Receptor Gene Assay ECR” value on A3 receptor is recorded as 54.8.

`CCOC(=O)N1CCC(Nc2ncnc3c2ncn3[C@@H]2O[C@H](COC)[C@@H](O)[C@H]2O)CC1` [Example 23, 4-[9-(3R,4S-Dihydroxy-5R-methoxymethyl-tetrahydro-furan-2R-yl)-9H-purin-6-ylamino]-piperidine-1-carboxylic acid ethyl ester]: the “A1 Receptor Gene Assay ECR” value in data set [1] is on record as 2.20. Also, the “A3 Receptor Gene Assay ECR” value on A3 receptor is reported as 162.

As to `CNS(=O)(=O)CCNc1nc(C)nc2c1ncn2[C@@H]1O[C@H](COC)[C@@H](O)[C@H]1O` [Example 25, 2-[9-(3R,4S-Dihydroxy-5R-methoxymethyl-tetrahydro-furan-2R-yl)-2-methyl-9H-purin-6-ylamino]-ethanesulfonic acid methylamide], the “A1 Receptor Gene Assay ECR” value in data set [1] is 1.67. On A3 receptor, the “A3 Receptor Gene Assay ECR” value is on record as greater than 288.

Consider `COC[C@H]1O[C@@H](n2cnc3c(NC4CCCC4)nc(C)nc32)[C@H](O)[C@@H]1O` [Example 27, N-Cyclopentyl-2-methyl-5′-O-methyl-adenosine], for which, in data set [1], the “A1 Receptor Gene Assay ECR” value was 3.02. In addition, at A3 receptor, the “A3 Receptor Gene Assay ECR” value is reported as greater than 263.

Consider `COC[C@H]1O[C@@H](n2cnc3c(NCC4CC4)nc(C)nc32)[C@H](O)[C@@H]1O` [Example 28, N-Cyclopropylmethyl-2-methyl-5′-O-methyl-adenosine], for which, in data set [1], the “A1 Receptor Gene Assay ECR” value stood at 8.07. Also, the “A3 Receptor Gene Assay ECR” value at A3 receptor is greater than 99.

Regarding “N-(2,3-Dihydroxy-propylamino)-5′-O-methyl-adenosine [Example 21]”, the “A3 Receptor Gene Assay ECR” value on A3 receptor amounted to 135.

For orientation: melting point means the temperature of the solid-liquid transition.
